Assays:
Cathepsin S = Cathepsin S activity in Lewis lung carcinoma tumors of treated mice (fluorometric kit); type: in vivo; details: 12 days treatment; vs untreated (saline) group
Method: (§1) The study was performed with C57BL/6 mice at the age of 6-8 weeks. Eight mice were allocated into each study group. Light anesthesia was administered by isoflurane inhalation. LLC cells in a concentration of 2.5×10^5 cells in 100 μl PBS were intradermally injected (subcutaneously) into the right flank of each mice. […] Cisplatin was given according to manufacturer instructions.
(§2) Ten days following tumor inoculation, when the tumor reached a volume of about >60 mm^3, mice were randomly allocated into the study groups. Various treatments were administered to each group starting Day 10 onwards. The treatment duration lasted for 12 days.
(§3) Both Cathepsin B and S activities were measured using samples from the same groups according to kit instructions. […] Cathepsin B Activity Assay Kit (Fluorometric) (ab65300) and Cathepsin S Activity Assay Kit (Fluorometric) (ab65303) by Abcam (Cambridge, UK) were used.

[1] = test system: Lewis Lung Carcinoma (LLC); assay: Tumor growth in subcutaneous LLC model, ACC with different stabilizers given IP or IV; type: in vivo, mice; details: group 2F, per manufacturer
Cathepsin B = Cathepsin B activity in Lewis lung carcinoma tumors of treated mice (fluorometric kit); type: in vivo; details: 12 days treatment; vs untreated (saline) group
Method: 8 tumors were analyzed per group. For the assay, 20 mg from each extracted tumor were weighed and lysed. Measurements were done using Cathepsin B Activity Assay Kit (Fluorometric) (ab65300) by Abcam (Cambridge, UK). The assays were performed on tumors from the two groups. The lysed samples were treated per Kit instructions, i.e., incubated with Cathepsin B substrate for 1 hour at 37° C. to identify the activity of the lysosomal protein.
as §1, §2, §3

[2] = test system: Experimental Autoimmune Encephalomyelitis (EAE) model; assay: Clinical score in MOG-induced EAE multiple sclerosis model in mice; type: in vivo

Compound | increase in Cathepsin S activity in tumors (Cathepsin S) | Mean tumor volume on Day 25 [1] | reduction in Cathepsin B activity in tumors (Cathepsin B) | day on which paralysis signs started ([2]; C57BL mice, n=10 per group) | score of the paralysis signs at plateau ([2]; after days 15 and 16 of treatments) | score of the paralysis signs at the end of the study ([2]; study duration 55 days) | paralysis progression at the initial phase ([2]; until day 15, compared to mice given saline or ACC)
N.N.[Cl][Pt][Cl] [Cisplatin] | 30% | 1342 mm^3 | 43% | – | – | – | –
Glatiramer acetate [Copaxone] | – | – | – | 11 days | the same paralysis score | higher score | slower paralysis progression
